# In patent US10669287B2, “Curcumin-boron complex and pharmaceutical containing same” (JAPAN SCIENCE AND TECHNOLOGY AGENCY, priority 2016, dated 2020):
# Read-outs that look alike come from different tables or passages of the source.
# Columns and labels:
# Arctic Aβ1-38 = molecular target: T1, Arctic Aβ1-38 (Homo sapiens, UniProt P05067, E693G); format: biochemical; details: mouse brain lysate, light 780 nm
# T1 construct: The peak intensity decreased by 36%/53%/74% for Arctic Aβ1-38; from tissue; host or cells: cerebral cortex and hippocampus of App knock-in mouse
# Procedure: The brain excised from an eight-month-old App knock-in (App^NL-C-F/NL-C-F) mouse (Alzheimer's model mouse) was separated into the cerebral cortex, the hippocampus, and the residual brain tissues. The cerebral cortex and the hippocampus were homogenized together in a phosphate buffer saline, and the suspension was stored at −80° C. […] At an arbitrary point of time, an arbitrary aliquot of the reaction mixture was diluted with formic acid to a final concentration of 70%, concentrated, and redissolved in a 6 M aqueous solution of urea.
# Aβ1-42 = molecular target: T2, Aβ1-42 (Homo sapiens, UniProt P05067); assay: Degree of oxygenation of pre-aggregated Aβ1-42 (MALDI-TOF MS), Test Example 10; format: biochemical; details: pre-aggregated Aβ1-42 20 μM, catalyst 2 μM, phosphate buffer pH 7.4, 780 nm (14 mW), 37° C., 30 minutes
# T2 construct: phosphate buffer (pH 7.4)/cell culture solution (containing 0.1% horse serum) (1:3) containing Aβ1-42 (10 μM)
# Procedure: Aβ1-42 isopeptide (concentration: 250 μM in 0.1% aqueous solution of trifluoroacetic acid), angiotensin IV (200 μM aqueous solution), Met-enkephalin (200 μM aqueous solution), and somatostatin (200 μM aqueous solution) were added to a phosphate buffer or phosphate buffer saline (pH 7.4) (with 0.1 M aqueous solution of sodium hydroxide, as necessary) so that a final peptide concentration of 20 μM or 40 μM (pH 7.4) was reached. Before being subjected to oxygenation reaction, the Aβ1-42 solution was incubated at 37° C. for 1 to 3 hours. The phosphate buffer containing 40 μM of Aβ was diluted with a Dulbecco's modified Eagle's medium (DMEM, Life Technologies) containing 0.1% horse serum and buffered with 25 mM of 4-(2-hydroxyethyl)-1-piperazineethanesulfonic acid (HEPES).
# Solutions of the compounds with a final concentration of 2 μM were used for evaluation of oxygenation of Aβ1-42. Solutions of the compounds with a final concentration of 5 μM were used for evaluation of peptide selectivity. Each mixture was subjected to light irradiation with an LED (wavelength: 500, 660, or 780 nm) at a distance of approximately 5 to 10 cm at room temperature. A control group without light irradiation was additionally prepared. Reaction was analyzed through monitor analysis with a MALDI-TOF MS. Degree of oxygenation was determined as a ratio: degree of oxygenation (%)=(total of MS intensities for n[O] adducts)/(MS intensity for native+total of MS intensities for n[O] adducts)×100. Aliquots of each reaction solution were desalted with a ZipTip U-C18 (Merck Millipore), as necessary, before mass spectrometry.
# a: A phosphate buffer (pH 7.4) solution containing pre-aggregated Aβ1-42 (20 μM, incubated at 37° C. for 3 hours) and a catalyst (2 μM) was subjected to light irradiation (wavelength: 660 nm) at 37° C. for 30 minutes. Thereafter, the reaction mixture was analyzed by using a MALDI-TOF MS.
# a: A phosphate buffer (pH 7.4) containing pre-aggregated Aβ1-42 (20 μM, obtained through incubation at 37° C. for 3 hours) and a catalyst (2 μM) were subjected to light irradiation at 780 nm (14 mW) at 37° C. for 30 minutes. The reaction mixture was analyzed by using a MALDI-TOF MS.
compound,measurement,setting,value
O=C(O)CCCCCN1CCCc2cc(/C=C/C3=[O+][B-](F)(C(F)(F)C(F)(F)F)OC(/C=C/c4cc5c6c(c4)CCCN6CCC5)=C3Br)ccc21 (stereo not shown) [Compound E],decrease of peak intensity (conversion) of Arctic Aβ1-38,Arctic Aβ1-38; 30 minutes,36%
same,decrease of peak intensity (conversion) of Arctic Aβ1-38,Arctic Aβ1-38; 60 minutes,53%
same,decrease of peak intensity (conversion) of Arctic Aβ1-38,Arctic Aβ1-38; 150 minutes,74%
same,Degree of oxygenation (%) of Aβ42 (λ = 780 nm),Aβ1-42,58%
